Data set [1] is described as follows: Oral bioavailability in Swiss mouse at 10 mg/kg administered as bolus dose by LC-MS/MS analysis. The settings on record: in vivo. Type of data set: ADME, organism-based.
For data set [2], the system named is THP-1. In words: Induction of phospholipidosis in human THP1 cells at 21 uM after […] by ethidiumbromide-based fluorescence assay relative to control. It counts as cell-based. As to conditions: thp-1, 21 µM.
A short description of data set [3]: Oral bioavailability in Beagle dog at 10 mg/kg administered as bolus dose by LC-MS/MS analysis. It counts as ADME, organism-based, Canis lupus familiaris. As to conditions: in vivo.
Data set [4] is described as follows: Safety index, ratio of NOAEL for cardiotoxicity in anesthetized guinea pigs assessed as free drug level causing QTcB prolongation dosed up to 10 mg/kg, iv administered over a period of 5 min at 15 mins interval by ECG analysis to EC50 for Antialzheimer activity in po dosed Beagle dog assessed as reduction in amyloid beta (1 to 40) levels measured after 1 hr post dose by ELISA. It counts as toxicity, organism-based. As to conditions: guinea pig, in vivo. Background: In an ELISA, binding on a coated surface is turned into a signal by an enzyme label.

The test system of data set [5] is Rattus norvegicus. In words: Toxicity in Sprague-Dawley rat assessed as induction of tissue damage at 225 mg/kg/day, po administered via gavage for 1 month. It counts as organism-based. As to conditions: in vivo.
Data set [6] can be described thus: Fraction unbound in human plasma at 5 uM after 4.5 hrs by HPLC-MS/MS method based rapid equilibrium dialysis. Type of data set: ADME, cell-free.
A short description of data set [7]: Cmax in male Beagle dog at 70 mg/kg, po measured after 1 month repeated dosing by LC-MS/MS analysis. As to conditions: in vivo.
Data set [8] can be described thus: Fraction unbound in rat plasma at 5 uM after 4.5 hrs by HPLC-MS/MS method based rapid equilibrium dialysis. Type of data set: ADME, cell-free. On the technique in general: Equilibrium dialysis compares concentrations on both sides of a semipermeable membrane.

Consider `C[C@]1(c2cc(NC(=O)c3ccc(C#N)cn3)ccc2F)N=C(N)CO[C@H]1C(F)(F)F`, for which the bioavailability – broadly, dose-corrected exposure relative to a reference, in per cent – stood at 45% in data set [1] and 71% in data set [3]. Also, the “fold change (FC)” value in data set [2] came to 2. For the same compound, the selectivity ratio in data set [4] amounted to 71. Also, the Activity entry in data set [5] is given as “Non-Toxic”. For the same compound, the fraction unbound (usually free concentration divided by total concentration) at 4.5 h, 5 µM was 0.36 in data set [6] and 0.26 in data set [8]. Moreover, in data set [7], the Cmax (usually the peak of the concentration-time curve) at 1 month is 1.97 µg/mL.

For the origin of these results see ChEMBL document CHEMBL4130624, “Optimization of 1,4-Oxazine β-Secretase 1 (BACE1) Inhibitors Toward a Clinical Candidate” (J Med Chem, 2018).
